Test results taken from patent US7511044B2, “Vanilloid receptor ligands and their use in treatments” (Amgen Inc., priority 2004, dated 2009).

| melting point [°C] | Structure (SMILES) |
| --- | --- |
| 114 | C[C@@H](c1ccc(F)cc1)N1CCN(c2cc(Oc3cccc4ncc(N)nc34)ncn2)CC1 [Example 54, (S)-8-(6-(4-(1-(4-Fluorophenyl)ethyl)piperazin-1-yl)pyrimidin-4-yloxy)quinoxalin-2-amine] |
| 243.6 to 245.7 | CC(=O)Nc1nc2c(Oc3cc(N4CCN([C@@H](C)c5ccc(F)cc5)CC4)ncn3)cccc2s1 [Example 21, N-[4-(6-{4-[(1S)-1-(4-Fluoro-phenyl)-ethyl]-piperazine 1-yl}-pyrimidin-4-yloxy)-benzothiazol-2-yl]-acetamide] |
| 199.8 | CC(=O)Nc1nc2c(Oc3cc(N4CCN(C(C)c5ccc(F)cc5)CC4)ncn3)cccc2o1 (stereo not shown) [Example 66, N-(4-(6-(4-(1-(4-Fluorophenyl)ethyl)piperazin-1-yl)pyrimidin-4-yloxy)benzo[d]oxazol-2-yl)acetamide] |
| 222 | CC(c1ccc(F)cc1)N1CCN(c2cc(Oc3cccc4sc(N)nc34)ncn2)CC1 (stereo not shown) [Example 52, 4-(6-(4-(1-(4-Fluorophenyl)ethyl)piperazin-1-yl)pyrimidin-4-yloxy)benzo[d]thiazol-2-amine] |
| 202.6 to 204.3 | CC(=O)Nc1nc2c(Oc3cc(N4CCN(C(C)c5ccccc5F)CC4)ncn3)cccc2s1 (racemic) [Example 1, N-[4-(6-{4-[(1S,1R)-1-(2-Fluoro-phenyl)-ethyl]-piperazin-1-yl}-pyrimidin-4-yloxy)-benzothiazol-2-yl]-acetamide] |
| 243.8 to 245.9 | CC(=O)Nc1nc2c(Oc3cc(N4CCN([C@H](C)c5ccc(F)cc5)CC4)ncn3)cccc2s1 [Example 22, N-[4-(6-{4-[(1R)-1-(4-Fluoro-phenyl)-ethyl]-piperazine1-yl}-pyrimidin-4-yloxy)-benzothiazol-2-yl]-acetamide] |
| 247.3 | CC(=O)Nc1nc2c(Oc3cc(N4CCN(C(C)c5ccc(F)cc5)CC4)ncn3)cccc2s1 (racemic) [Example 2, N-[4-(6-{4-[(1S,1R)-1-(4-Fluoro-phenyl) -ethyl]-piperazine1-yl}-pyrimidin-4-yloxy)-benzothiazol-2-yl]-acetamide] |
| 167 | C[C@@H](c1ccc(F)cc1)N1CCN(c2cc(Oc3cccc4ccc(N)nc34)ncn2)CC1 [Example 24, 8-(6-{4-[(1S)-(4-Fluoro-phenyl)-ethyl]-piperazine-1-yl}-pyrimidin-4-yloxy)-quinolin-2-ylamine] |
| 134 | CC(=O)Nc1ccc2cccc(Oc3cc(N4CCN([C@H](C)c5ccc(F)cc5)CC4)ncn3)c2n1 [Example 69, (R)-N-(8-(6-(4-(1-(4-Fluorophenyl)ethyl)piperazin-1-yl)pyrimidin-4-yloxy)quinolin-2-yl)acetamide] |
| 118 | C[C@H](c1ccc(F)cc1)N1CCN(c2cc(Oc3cccc4ncc(N)nc34)ncn2)CC1 [Example 55, (R)-8-(6-(4-(1-(4-Fluorophenyl)ethyl)piperazin-1-yl)pyrimidin-4-yloxy)quinoxalin-2-amine] |

Further lines, the compound ahead of its results:

| Structure (SMILES) | melting point [°C] |
| --- | --- |
| C[C@@H](c1ccc(F)cc1)N1CCN(c2cc(Oc3cc(F)cc4[nH]c(=O)c(N)nc34)ncn2)CC1 [Example 58, (S)-3-Amino-7-fluoro-5-(6-(4-(1-(4-fluorophenyl)ethyl)piperazin-1-yl)pyrimidin-4-yloxy)quinoxalin-2(1H)-one] | 288 |
| C[C@H](c1ccc(F)cc1)N1CCN(c2cc(Oc3cccc4c3nc(N)c(=O)n4C)ncn2)CC1 [Example 59, (R)-3-Amino-5-(6-(4-(1-(4-fluorophenyl)ethyl)piperazin-1-yl)pyrimidin-4-yloxy)-1-methylquinoxalin-2(1H)-one] | 256 |
| CC(c1ccc(F)cc1)N1CCN(c2cc(Oc3cccc4c3NCC(=O)N4)ncn2)CC1 (stereo not shown) [Example 71, 5-(6-(4-(1-(4-Fluorophenyl)ethyl)piperazin-1-yl)pyrimidin-4-yloxy)-3,4-dihydroquinoxalin-2-(1H)-one] | 221 |
| CC(c1ccc(F)cc1)N1CCN(c2cc(Oc3cccc4c(=O)[nH]ccc34)ncn2)CC1 (stereo not shown) [Example 72, 5-(6-(4-(1-(4-Fluorophenyl)ethyl)piperazin-1-yl)pyrimidin-4-yloxy)isoquinolin-1(2H)-one] | 249 |
| C[C@H](c1ccc(F)cc1)N1CCN(c2cc(Oc3cc(F)cc4[nH]c(=O)c(N)nc34)ncn2)CC1 [Example 57, (R)-3-Amino-7-fluoro-5-(6-(4-(1-(4-fluorophenyl)ethyl)piperazin-1-yl)pyrimidin-4-yloxy)quinoxalin-2(1H)-one] | 315 |
| CC(c1ccc(F)cc1)N1CCN(c2cc(Oc3cccc4[nH]c(=O)ccc34)ncn2)CC1 (stereo not shown) [Example 61, 5-(6-(4-(1-(4-Fluorophenyl)ethyl)piperazin-1-yl)pyrimidin-4-yloxy)quinoline-2(1H)-one] | 242.2 |
| C[C@H](c1ccc(F)cc1)N1CCN(c2cc(Oc3cccc4[nH]c(=O)c(N)nc34)ncn2)CC1 [Example 26, 3-Amino-5-(6-{4-[(1R)-1-(4-fluoro-phenyl)-ethyl]-piperazin-1-yl}-pyrimidin-4-yloxy)-1H-quinoxalin-2-one] | 292.2 to 293.9 |
| CC(c1ccc(F)cc1)N1CCN(c2cc(Oc3cccc4ccncc34)ncn2)CC1 (stereo not shown) [Example 70, 8-(6-(4-(1-(4-Fluorophenyl)ethyl)piperazin-1-yl)pyrimidin-4-yloxy)isoquinoline] | 114 |
| C[C@@H](c1ccc(F)cc1)N1CCN(c2cc(Oc3cccc4[nH]c(=O)c(N)nc34)ncn2)CC1 [Example 27, 3-Amino-5-(6-{4-[(1S)-1-(4-fluoro-phenyl)-ethyl]-piperazin-1-yl}-pyrimidin-4-yloxy)-1H-quinoxalin-2-one] | 294.5 to 295.3 |
